Among the test systems are T-47D breast; SK-MEL-28 melanoma; OVCAR-4 ovarian; UACC-257 melanoma; SK-OV-3 ovarian; MALME-3M melanoma; OVCAR-8 ovarian; HL-60(TB) leukemia.
Holding throughout (experiment): NCI anticancer screen, dose series, 48 h

In PubChem BioAssay (NCI) one finds GI50 and TGI data, which are given here for eleven compounds.

SMILES strings stand for the structures.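 Following 48 hours of exposure in 96-well plates, responses at five concentrations were used to interpolate endpoints linearly. The concentration for 50% growth inhibition is given as GI50. TGI: concentration producing complete growth inhibition.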

Take `CO/N=C(\C)c1ccc(Nc2cc(-c3ccccc3)nc3ccc(OC)cc23)cc1`: the GI50 is 33.7 µM in the experiment with T-47D breast; 29.4 µM with SK-MEL-28 melanoma; 7.81 µM in the experiment with OVCAR-4 ovarian; 4.64 µM in the experiment with UACC-257 melanoma; 15.2 µM in the experiment with SK-OV-3 ovarian; 1780 nM in the experiment on MALME-3M melanoma. In addition, the TGI in the experiment on T-47D breast is above 100 µM; in the experiment with SK-MEL-28 melanoma, above 100 µM; in the experiment with OVCAR-4 ovarian it was above 100 µM; in the experiment with UACC-257 melanoma it was above 100 µM; in the experiment on SK-OV-3 ovarian it was 60.4 µM; with MALME-3M melanoma, 4.85 µM.
As for `O=C(c1ccccc1)C1OC1c1ccc([N+](=O)[O-])cc1` (stereo not given), the GI50 was 3.9 µM with T-47D breast; 4.71 µM in the experiment on OVCAR-8 ovarian; 24.8 µM in the experiment on SK-MEL-28 melanoma; 4.57 µM in the experiment on OVCAR-4 ovarian; 16.7 µM with UACC-257 melanoma; 29.1 µM in the experiment with SK-OV-3 ovarian. Further, in the experiment on MALME-3M melanoma, the GI50 is 6220 nM. In addition, the TGI in the experiment on T-47D breast was 71.1 µM; in the experiment with OVCAR-8 ovarian, above 100 µM; in the experiment with SK-MEL-28 melanoma, above 100 µM; in the experiment with OVCAR-4 ovarian it was above 100 µM; in the experiment on UACC-257 melanoma it was above 100 µM; with SK-OV-3 ovarian, 90.3 µM. The same compound had a TGI in the experiment on MALME-3M melanoma above 100 µM.
As for `C/C(=N\NS(=O)(=O)c1ccc(C)cc1)P(=O)(O)O`, the TGI with T-47D breast, in the experiment on OVCAR-8 ovarian, in the experiment on SK-MEL-28 melanoma, in the experiment on OVCAR-4 ovarian, in the experiment with UACC-257 melanoma and in the experiment on SK-OV-3 ovarian was above 100 µM each time. Also, the TGI in the experiment on MALME-3M melanoma was above 100 µM.
For `COc1cc(N(C)C)c(OC)cc1/C=C\c1ccnc2ccccc12`, the TGI in the experiment on HL-60(TB) leukemia was 7.99 µM; in the experiment on OVCAR-8 ovarian it was above 10 µM; in the experiment with SK-MEL-28 melanoma, above 10 µM; in the experiment on OVCAR-4 ovarian it was above 10 µM; with UACC-257 melanoma it was above 10 µM; with SK-OV-3 ovarian, above 10 µM. This compound displayed a TGI in the experiment on MALME-3M melanoma above 10 µM.
For the compound `COC(=O)c1cc(O)c2cc3c(cc2c1-c1cc(OC)c(OC)c(OC)c1)OCO3`, the GI50 is 2.38 µM with T-47D breast; 11.3 µM with OVCAR-8 ovarian; 5.34 µM in the experiment on SK-MEL-28 melanoma; above 100 µM with OVCAR-4 ovarian; 1.8 µM in the experiment with UACC-257 melanoma; 3.02 µM in the experiment with SK-OV-3 ovarian. In addition, in the experiment with MALME-3M melanoma, the GI50 was 815 nM. Also, the TGI in the experiment with T-47D breast, with OVCAR-8 ovarian, in the experiment with SK-MEL-28 melanoma, in the experiment on OVCAR-4 ovarian, in the experiment on UACC-257 melanoma and in the experiment with SK-OV-3 ovarian was above 100 µM each time. This compound showed a TGI in the experiment with MALME-3M melanoma above 100 µM.
Consider `O=C(c1ccccc1)C(CN1CCCCC1)c1ccccc1` (stereo not given), for which the GI50 in the experiment with HL-60(TB) leukemia was 1.42 µM; with OVCAR-8 ovarian, 1.7 µM; in the experiment on SK-MEL-28 melanoma, 3.25 µM; with OVCAR-4 ovarian, 1.54 µM; in the experiment with UACC-257 melanoma, 1.73 µM; in the experiment with SK-OV-3 ovarian it was 7.27 µM. For the same compound, the GI50 in the experiment on MALME-3M melanoma was 1440 nM. In addition, the TGI came out at 3.86 µM with HL-60(TB) leukemia; 4.36 µM with OVCAR-8 ovarian; 11.4 µM in the experiment with SK-MEL-28 melanoma; 4.52 µM in the experiment with OVCAR-4 ovarian; 4.06 µM in the experiment on UACC-257 melanoma; 24.8 µM in the experiment on SK-OV-3 ovarian. For the same compound, the TGI in the experiment on MALME-3M melanoma is 3.35 µM.
Take `C[n+]1c2cc(N)ccc2cc2ccc(N)cc21`: the GI50 is 2.83 µM [middle of 4 runs] in the experiment with HL-60(TB) leukemia; 565 nM [middle of 4 runs] in the experiment on OVCAR-8 ovarian; 1.96 µM [middle of 4 runs] with SK-MEL-28 melanoma; 1.34 µM [middle of 4 runs] in the experiment on OVCAR-4 ovarian; 1.79 µM [middle of 4 runs] with UACC-257 melanoma; 763 nM [middle of 4 runs] in the experiment on MALME-3M melanoma. Moreover, the TGI in the experiment with HL-60(TB) leukemia is 9.76 µM [middle of 4 runs]; in the experiment with SK-MEL-28 melanoma, 4.78 µM [middle of 4 runs]; with UACC-257 melanoma it was 3.91 µM [middle of 4 runs]; with MALME-3M melanoma, 2.86 µM [middle of 4 runs].
With `COc1cc(C2SCC(=O)N2c2ncc(C)s2)cc(OC)c1OC` (stereo not given), the GI50 is 28.7 µM in the experiment with HL-60(TB) leukemia; 35.4 µM in the experiment on OVCAR-8 ovarian; above 50 µM in the experiment with SK-MEL-28 melanoma; above 50 µM with OVCAR-4 ovarian; above 50 µM in the experiment with UACC-257 melanoma. Besides, the TGI in the experiment with HL-60(TB) leukemia, in the experiment with OVCAR-8 ovarian, in the experiment on SK-MEL-28 melanoma, in the experiment on OVCAR-4 ovarian and in the experiment on UACC-257 melanoma was above 50 µM in each case.
Turning to `C/C1=C/C(=O)O[C@@H]2C[C@@H](CC[C@H](C)/C=C\C=C\CC1)O[C@@](O)([C@@H]1CSC(=O)N1)C2`, the TGI in the experiment with HL-60(TB) leukemia is above 10 µM; with OVCAR-8 ovarian, above 10 µM; in the experiment on SK-MEL-28 melanoma it was 5.41 µM; in the experiment with OVCAR-4 ovarian, above 10 µM; in the experiment on UACC-257 melanoma, above 10 µM; in the experiment on SK-OV-3 ovarian, above 9.4 µM. Besides, in the experiment with MALME-3M melanoma, the TGI is above 10 µM.
With `O=C(Nc1ccc(Cl)c(Cl)c1)Nc1c(Oc2ccc(Cl)c(Cl)c2)ccc(Cl)c1S(=O)(=O)O`, the GI50 was 3.7 µM in the experiment on OVCAR-8 ovarian and 4.05 µM in the experiment with SK-MEL-28 melanoma. Further, the TGI in the experiment on OVCAR-8 ovarian and in the experiment with SK-MEL-28 melanoma was above 100 µM throughout.
On to `O=c1[nH]c(=S)[nH]c2c1CN(CCCN1CCOCC1)CN2`, for which the TGI was above 100 µM in the experiment with T-47D breast; 96.4 µM in the experiment with OVCAR-8 ovarian; above 100 µM in the experiment on SK-MEL-28 melanoma; above 100 µM in the experiment with OVCAR-4 ovarian; above 100 µM with UACC-257 melanoma; 42.3 µM with MALME-3M melanoma.
